Where two headings read alike, the source gives them in different places.
Key:
[1] = Rat brain cassette exposure study; type: in vivo, Sprague Dawley rat; details: intravenous cassette dosing; for half-life: male, Sprague Dawley, rat, brain, read-out: calculated half-life (t1/2) in rat brain tissue
Procedure: The in vivo pharmacokinetic characteristics of the example compounds of the invention were compared directly with the known beta-amyloid specific ligand AZD2184 (Johnson, A. E., et al, Journal of Neurochemistry (2009), Vol. 108, pages 1177-1186). Rat brain exposure to three compounds of the invention and AZD2184 was measured by intravenous cassette dosing three test compound: Example Compound 43, Example Compound 47 and Example Compound 48; and AZD2184 (Novandi Chemistry) (concentration of 0.25 μmol/mL each) using the procedure previously described in Johnson, A. E., et al, Journal of Neurochemistry (2009), Vol. 108, pages 1177-1186. 6 male Sprague Dawley rat were used in the experiments, three rats per time point (2 min and 30 min).

[2] = literature value; cited from earlier work
MAO-A [3] = target: T1, MAO-A (Rattus norvegicus, UniProt P21396); experiment: MAO-A binding assay ([^3H]-Ro41-1049); details: tested at 1 μM, rat cerebral cortex; for inhibition at 1 µM: read-out: % inhibition of control specific binding, MAO-A binding assay
T1 construct: tissue EuroFins Pharma Discovery Service (assay service); host or cells: rat cerebral cortex (own knowledge of the vendor's assay)
T1 sequence (P21396 1-526): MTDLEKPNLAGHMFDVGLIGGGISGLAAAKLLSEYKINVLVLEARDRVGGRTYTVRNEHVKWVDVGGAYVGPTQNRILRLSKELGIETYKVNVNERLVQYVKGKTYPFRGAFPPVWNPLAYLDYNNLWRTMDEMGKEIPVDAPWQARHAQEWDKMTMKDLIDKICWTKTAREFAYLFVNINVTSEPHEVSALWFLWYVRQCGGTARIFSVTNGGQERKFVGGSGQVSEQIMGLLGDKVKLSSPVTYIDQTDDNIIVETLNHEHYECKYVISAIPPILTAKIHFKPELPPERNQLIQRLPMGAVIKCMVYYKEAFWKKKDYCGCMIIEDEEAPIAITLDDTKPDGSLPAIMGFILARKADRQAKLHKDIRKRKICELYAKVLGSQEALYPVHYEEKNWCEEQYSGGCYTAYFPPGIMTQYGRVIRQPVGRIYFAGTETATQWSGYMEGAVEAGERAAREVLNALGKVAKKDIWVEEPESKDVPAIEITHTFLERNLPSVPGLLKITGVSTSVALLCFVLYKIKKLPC
Procedure: A monoamine oxidase inhibitor (MAO) binding assay for MAO-A was performed (EuroFins Pharma Discovery Service) for Example Compound 43, Example Compound 48 and the known tau ligand THK-5117. The three compounds were tested at 1 μM. Compound binding was calculated as a % inhibition of the binding of the selective MAO-A inhibitor [^3H]-Ro41-1049 for MAO-A binding.
The MAO-A binding assay was carried our as described in Cesura, A. M., et al, Mol. Phamacol. (1990), Vol 37, pages 358-366, using the materials and conditions described in Table 3.
The results of the MAO-A binding assay are expressed as a percent inhibition of control specific binding obtained in the presence of the test compounds: […]

MAO-A [4] = target: T2, MAO-A (Homo sapiens, UniProt P21397); experiment: MAO-A enzyme and uptake assay (kynuramine); type: biochemical; details: tested at 1 μM, human placenta; for inhibition at 1 µM: read-out: % inhibition of control enzyme activity, MAO-A
T2 construct: EuroFins Pharma Discovery Service (assay service)
T2 sequence (P21397 1-527): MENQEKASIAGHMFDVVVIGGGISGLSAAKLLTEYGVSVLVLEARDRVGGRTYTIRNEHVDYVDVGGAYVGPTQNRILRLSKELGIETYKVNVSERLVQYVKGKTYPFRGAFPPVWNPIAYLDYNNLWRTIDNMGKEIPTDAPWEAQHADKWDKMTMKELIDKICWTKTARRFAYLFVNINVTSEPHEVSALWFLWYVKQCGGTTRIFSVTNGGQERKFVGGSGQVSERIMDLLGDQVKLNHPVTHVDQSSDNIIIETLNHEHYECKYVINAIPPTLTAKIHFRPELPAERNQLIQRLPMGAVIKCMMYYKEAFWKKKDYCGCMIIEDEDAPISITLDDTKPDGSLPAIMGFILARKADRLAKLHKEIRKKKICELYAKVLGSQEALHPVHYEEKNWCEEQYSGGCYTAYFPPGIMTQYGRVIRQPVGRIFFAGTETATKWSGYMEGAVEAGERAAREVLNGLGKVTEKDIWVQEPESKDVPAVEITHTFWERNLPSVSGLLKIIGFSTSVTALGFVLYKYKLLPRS
Procedure: (§1) MAO enzyme and uptake assays were also performed (EuroFins Pharma Discovery Service) as described in Weyler, W., et al., J. Biol. Chem. (1985), Vol. 260, pages 13199-13207, using the materials and conditions described in Table 4; and as described in Tsugeno, U., et al., J Biochem. (1995), Vol. 118, pages 974-980, using the materials and conditions described in Table 5, for Example Compound 43, Example Compound 48 and the known tau ligand THK-5117. The three compounds were tested at 1 μM. Compound enzyme/uptake inhibition effect was calculated as a % inhibition of control enzyme activity.
(§2) The results of the enzyme and uptake assays are expressed as a percent inhibition of control specific activity obtained in the presence of the test compounds: […]

MAO-B = target: T3, MAO-B (Homo sapiens, UniProt P27338); experiment: MAO-B recombinant enzyme assay (D-Luciferin derivative); type: biochemical; details: tested at 1 μM; for inhibition at 1 µM: read-out: % inhibition of control enzyme activity, MAO-B
T3 construct: EuroFins Pharma Discovery Service (assay service)
T3 sequence (P27338 1-520): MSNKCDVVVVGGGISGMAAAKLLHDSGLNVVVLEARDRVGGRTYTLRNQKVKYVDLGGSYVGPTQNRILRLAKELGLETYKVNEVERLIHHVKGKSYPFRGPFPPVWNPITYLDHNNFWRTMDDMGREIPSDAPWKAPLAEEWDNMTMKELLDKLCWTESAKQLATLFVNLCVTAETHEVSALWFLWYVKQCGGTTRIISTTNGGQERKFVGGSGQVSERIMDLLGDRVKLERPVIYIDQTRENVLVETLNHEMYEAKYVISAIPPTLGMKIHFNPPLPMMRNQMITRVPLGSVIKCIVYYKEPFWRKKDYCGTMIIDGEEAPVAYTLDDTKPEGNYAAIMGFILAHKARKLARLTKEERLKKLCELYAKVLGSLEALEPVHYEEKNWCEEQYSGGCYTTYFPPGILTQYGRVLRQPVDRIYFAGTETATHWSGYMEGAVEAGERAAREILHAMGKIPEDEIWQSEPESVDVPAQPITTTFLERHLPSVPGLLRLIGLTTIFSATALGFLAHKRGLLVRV
Procedure: as §1, §2

0N4R Tau fibrils = target: T4, 0N4R Tau fibrils (Homo sapiens, UniProt P10636); experiment: In vitro competitive binding to 0N4R tau fibrils in the presence of [^3H]-Example Compound 68 (FIG. 1)
T4 construct: made in house
T4 sequence (P10636 1-383 isoform P10636-6): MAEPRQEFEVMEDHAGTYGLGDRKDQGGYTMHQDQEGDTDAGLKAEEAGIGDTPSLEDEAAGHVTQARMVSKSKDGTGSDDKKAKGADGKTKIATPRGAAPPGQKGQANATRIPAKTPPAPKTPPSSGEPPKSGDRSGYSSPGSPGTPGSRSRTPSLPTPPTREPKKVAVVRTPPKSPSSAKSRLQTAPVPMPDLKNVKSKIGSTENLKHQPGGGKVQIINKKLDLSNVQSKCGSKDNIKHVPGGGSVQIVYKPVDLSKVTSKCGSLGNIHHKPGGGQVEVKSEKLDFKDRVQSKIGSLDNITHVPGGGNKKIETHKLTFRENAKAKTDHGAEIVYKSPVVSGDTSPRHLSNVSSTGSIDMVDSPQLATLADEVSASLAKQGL

[5] = cited from earlier work
tau plaques = experiment: Autoradiography on brain sections from CBD and PSP patients; type: binding, human; details: 3 nM radiotracer, with or without 1 μM unlabeled compound; compared with antibody AT8
tau plaques, sequence (P10636 561-708 limits assumed): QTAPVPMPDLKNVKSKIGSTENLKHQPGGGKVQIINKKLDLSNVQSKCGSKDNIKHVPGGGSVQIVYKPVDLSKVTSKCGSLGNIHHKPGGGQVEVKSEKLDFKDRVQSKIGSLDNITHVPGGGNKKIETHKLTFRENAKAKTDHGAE
Procedure: To examine binding of the example compounds of the present invention to tau plaques in vitro, autoradiography was carried out on brain sections from corticobasal degeneration (CBD) and progressive supranuclear palsy (PSP) patients incubated with [^3H]-Example Compound 72 or [^3H]-Example Compound 48 in the presence or absence of unlabeled Example Compound […] (1 μM) or unlabeled Example Compound 48 (1 μM), respectively. The experiment was performed as previously described in Johnson, A. E., et al, Journal of Neurochemistry (2009), Vol. 108, pages 1177-1186, but using post mortem cortical samples from corticobasal degeneration (CBD) and progressive supranuclear palsy (PSP) patients instead of from Alzheimer's disease patients.
Briefly, brain sections from the cortical samples were incubated for 30 min at 22° C. in 50 mN Tris buffer (pH 7.4) together with 3 nM [^3H]-Example Compound 72 or 3 nM [^3H]-Example Compound 48 in the presence of absence of on unlabeled Example Compound 72 (1 μM) or unlabeled Example Compound 48 (1 μM), respectively. The sections were then washed (3×10 min) in Tris buffer (1° C.) followed by a rinse in deionized water (1° C.) and air-dried at 22° C. in front of a fan. Binding was then measured and analysed as described in Johnson, A. E., et al.
The tau pathology was confirmed on adjacent brain sections by immunohisto-chemistry (IHC) using Phospho-Tau (Ser202, Thr205) Monoclonal Antibody (AT8) as previously as described in Biernat, J., et al, EMBO J. (1992) Vol. 4, pages 1593-1597. AT8 was obtained from Thermo Fisher Scientific (Phospho-PHF-Tau, Thermo Ficher Scientific, Catalog No. MN1020, Stock cone: 0.2 mg/ml, Working solution: 1/100).

In the case of `CNc1ccc(-c2nc3ccc(O)cc3s2)cn1` [AZD2184, reference compound], the “calculated half-life (t1/2) in rat brain tissue” value ([1]; samples at 2 min and 30 min) is given as 6.65 min and the “t1/2 reported in Table 3 of Johnson, A. E., et al” value [2] is given as 6.8 min.

For `CNc1ccc(-c2ccc3cc(OCC(O)CF)ccc3n2)cc1` (stereo not shown) [THK-5117, reference compound], the “% inhibition of control specific binding, MAO-A binding assay” value (MAO-A [3]) was ≤ 50%, the “% inhibition of control enzyme activity, MAO-A” value (MAO-A [4]) was ≤ 50% and the “% inhibition of control enzyme activity, MAO-B” value (MAO-B) was ≤ 50%.

In the case of `NC(=O)c1ccc2nc(-c3cnc(N4CCC(CCF)CC4)nc3)sc2c1` [Example Compound 43, 2-{2-[4-(2-Fluoroethyl)piperidin-1-yl]pyrimidin-5-yl}-1,3-benzothiazole-6-carboxamide], the inhibition at 1 µM (MAO-A [3]) is reported as < 25%, the half-life ([1]; samples at 2 min and 30 min) is reported as 379 min and the inhibition at 1 µM (MAO-A [4]) is reported as < 25%. The inhibition at 1 µM (MAO-B) was < 25%.

In the case of `OCC1CCN(c2ccc(-c3cc4cc(O)ccc4[nH]3)c(F)n2)CC1` [Example Compound 48, 2-{2-Fluoro-6-[4-(hydroxymethyl)piperidin-1-yl]pyridin-3-yl}-1H-indol-5-ol], the inhibition at 1 µM (MAO-A [3]) is reported as < 25%, the “clearance from normal rat brain tissue” value ([1]; 2 min and 30 min) is reported as “rapidly cleared” and the half-life ([1]; samples at 2 min and 30 min) is reported as 8.21 min. The “tau binding site shared (competition with [^3H]-Example Compound 68)” value (0N4R Tau fibrils) was “share the same binding site”, the inhibition at 1 µM (MAO-A [4]) was < 25% and the inhibition at 1 µM (MAO-B) was < 25%.

For `CNc1ccc(/C=C/C=C/c2nc3ccc(O)cc3s2)cn1` [^11C-PBB3], the “radiochemical purity after exposure to fluorescent light” value ([5]; at 1 min after exposure) is given as 77% and the “radiochemical purity after exposure to fluorescent light” value ([5]; from 10 to 60 min) is given as “approximately 50%”.

For “[^3H] labeled (1-{5-[5-(2-Fluoroethoxy)-1H-indol-2-yl]pyrimidin-2-yl}piperidin-4-yl)methanol [[^3H]-Example Compound 72]”, the “radiotracer binding in CBD brain tissue” value (tau plaques) was “displaceable binding in CBD brain tissue that correlate with tau-specific antibody AT8” and the “radiotracer binding in PSP brain tissue” value (tau plaques) was “displaceable binding in PSP brain tissue that correlate with tau-specific antibody AT8”.
